Measurements published in patent US7838491B2, “Self-assembly and mineralization of peptide-amphiphile nanofibers” (Northwestern University, priority 2001, dated 2010).
Square brackets hold non-standard residues; d marks the D form. Peptide text beside a SMILES is read from it. * marks the point of attachment. Palmitoyl = CCCCCCCCCCCCCCCC(=O)*; pS = N[C@@H](COP(=O)(O)O)C(=O)O

Key:
Assay type in all cases: physicochemical
[1] = pH triggered self-assembly and gelation
Protocol: (§1) After synthesis (see, example 10), the PA of FIG. 1 (characterized by ^1H NMR and MALDI-TOF MS: [M-H]^−1=1333) was treated with dithiothreitol (DTT) at a pH of 8 to reduce all cysteine residues to free thiols. […] Solutions more concentrated than 2.5 mg/ml form birefringent gels in water that are self-supporting upon inversion of the container. […] Negatives were digitized in the Umax PowerLook scanner with resolution 1200 dpi. The average thickness of the PA fibers was determined by two different procedures. First the Fourier transform of the images and following measurements of the distances between the peaks were performed in the NIH Image […] program. The second approach applied was averaging technique based on the cross-correlation method, widely used in single particle reconstruction using the EMAN […] program. For each data set 1200-1300 individual boxes were selected.
Upon lowering the pH below 4 with HCl the material self-assembles; when the pH is brought back to neutrality with KOH it disassembles. This pH triggered self-assembly and gelation allows the material to respond to its environment and thus may have applications in controlled release of molecules (W. A. Petka, J. L. Hardin, K. P. McGrath, D. Wirtz, D. A. Tirrell, Science 281, 389-392 (1998)).

[2] = TEM / cryo-TEM of self-assembled fibers
Protocol: as §1

[3] = solubility of the PA in water
Protocol: as §1

[4] = stability of fibers in alkaline solution (pH 8)
Source text: Following self-assembly of PA molecules into fibers, the cysteine thiol groups were oxidized by treatment with 0.01M iodine. […] Importantly, the covalent capture process of this invention can be easily reversed by treating the fibers with a mild reducing agent such as DTT. […] Together with the controlled self-assembly, reversible cross-linking provides a highly dynamic system which can interconvert between discrete molecules, self-assembled supramolecular fibers, covalently captured polymeric fibers and back again to single small molecules depending solely on the environment in which the material is placed.

## CCCCCCCCCCCCCCCC(=O)N[C@@H](CS)C(=O)N[C@@H](CS)C(=O)N[C@@H](CS)C(=O)N[C@@H](CS)C(=O)NCC(=O)NCC(=O)NCC(=O)N[C@@H](COP(=O)(O)O)C(=O)N[C@@H](CCCNC(=N)N)C(=O)NCC(=O)N[C@@H](CC(=O)O)C(=O)O [PA 1, CCCCGGGS(P)RGD] (Palmitoyl-CCCCGGG[pS]RGD-OH)
[1]; 0.01 mg/ml to 50 mg/ml
  concentration dependence of fiber formation: concentration independent
[1]; KOH
  behaviour when pH is brought back to neutrality: disassembles
[1]; in water
  concentration at which solutions form self-supporting birefringent gels: > 2500 µg/mL
[1]; pH lowered with HCl
  pH at which the material self-assembles: below 4
[2]; TEM, positively and negatively stained dried fibers
  fiber diameter: 6.0±1 nm
[2]; cryo-TEM of gels
  fiber length: up to several microns
[2]; cryo-TEM, native hydrated state
  fiber diameter: 7.6±1 nm
[3]; solution below pH 4
  solubility upon acidification: rapidly becomes insoluble
[3]; water, pH 8, after DTT reduction of cysteines
  solubility: > 50 mg/mL
[4]
  stability to alkaline solutions: disassemble within minutes
